For nine compounds, EC50 and half-life results are on record in patent US11865110B2, “Thrombin inhibitors, formulations, and uses thereof” (VERSEON INTERNATIONAL CORPORATION, priority 2018, dated 2024).

In data set [1] the target is T1, thrombin (Homo sapiens, UniProt P00734).
T1 construct: from tissue; host or cells: human plasma (thrombin generated in situ by tissue factor, phospholipids and CaCl2)
The experiment in a line: Human Thrombin Generation Assay (TGA). It counts as biochemical. Particulars: concentration that reduces endogenous thrombin potential AUC by 50%; human plasma; read-out: ETP EC50. How it is done: Results for the human thrombin generation assay (TGA; not to be confused with “thermogravimetric analysis” which is used elsewhere and carries the same acronym. One of skill in the art will appreciate which meaning is intended based on context of the surrounding technical information.) were generated as follows. In a 96-well plate, 4 μL of 100, 33.3, 11.1, 3.7, 1.23, 0.41, 0.137, and 0.046 μM solutions of the test compounds in DMSO were added to sequential wells filled with 68 μL of a “TGA Working Solution.” See description of this solution as well as other relevant solutions below. The plate was incubated at room temperature for 10 minutes, whereupon 8 μL of warm “Substrate Solution” was added to each well, resulting in a 500 μM concentration of the substrate, Z-GGR-AMC (Z-Gly-Gly-Arg-7-amino-4-methylcoumarin·HCl), in each well. Fluorescence intensity data (Ex/Em 380/460 nm) collection began immediately using a Cytation™ or Synergy™ H1 96-well plate reader set to incubate the plate at 37° C. over the data collection time of 90 minutes following double-orbital shaking for a period of 4 seconds. Test compounds were measured parallel to blanks and controls, as well as to wells of the substrate in DMSO at various concentrations (2.50, 0.833, 0.278, 0.093 mM) in the buffers to generate a standard fluorescence curve. Data values were computed automatically, including the ETP EC50 value of the AUC, which is the concentration of the compound that reduces endogenous thrombin potential AUC by 50%.
The various solutions were prepared as follows. A HEPES/NaCl Assay buffer was made by combining 7.5 mL of 5M NaCl, 1.19 g 4-(2-hydroxyethyl)piperazine-1-ethanesulfonic acid (HEPES) and 230 mL of water. An “Innovin Master Solution” was made by combining 20 μL of Siemens Dade Innovin recombinant tissue factor and thromboplastin with 50 μL of 0.5 mM phospholipid-TGT acquired from DiaPharma® in 450 μL of the above HEPES/NaCl Assay buffer. This solution was then vortexed for a few seconds. Next the “Substrate Master Solution” was made by adding 3.2 mL DMSO to 100 mg of Z-GGR-AMC (Z-Gly-Gly-Arg-7-amino-4-methylcoumarin·HCl) and vortexing in a polystyrene tube. This solution was stored at −20° C. A “TGA Working Solution” was prepared by adding 6.2 mL of human plasma, 50 μL of the Innovin Master Solution, and 80 μL of phospholipids to 2.6 mL of HEPES/NaCl Assay buffer. A “Substrate Working Solution” was made immediately before addition to the assay plate by adding 200 μL of the above “Substrate Master Solution” to a pre-warmed (37° C.) mixture of 1.46 mL of HEPES/NaCl Assay buffer and 340 μL of 1M CaCl2).
For additional description of this assay, please see Robert, S. et al. ‘Is thrombin generation the new rapid, reliable and relevant pharmacological tool for the development of anticoagulant drugs?’2009, Pharmacol Res 59:160-6 as well as Hemker, H. C. et al. ‘Calibrated automated thrombin generation measurement in clotting plasma.’ 2003, Pathophysiol Haemost Thromb 33:4-15.

Data set [2] in a line: Rat plasma stability. Type of data set: in vitro ADME. Particulars: Sprague-Dawley; SD rat plasma, 37° C., time points to 160 min; read-out: Rat Plasma Stability t1/2. The protocol:
Alongside a positive control of propantheline bromide, 8 μL of a 1 mM solution of each test compound in DMSO was placed in two wells of a Nunc™ 96-well plate called the “dilution plate.” To one well, 392 μL of HyClone™ water was added and mixed by a pipette. To the other well, 392 μL of mouse or rat plasma stabilized with sodium citrate purchased from Innovative Research was added and mixed by a pipette. The dilution plate was kept covered to reduce solvent evaporation and heated in an incubator at 37° C. At each of the time points enumerated below, the plate was removed from the incubator and 50 μL of the test compound/water or test compound/plasma solutions were transferred to a unique, corresponding well in a “quench plate” (96-well Costar® plate) that contains 150 μL of a quench solution that contains an internal standard (20 uM diclofenac in acetonitrile). The dilution plate was then returned to the incubator. This process was performed at 0, 5, 10, 20, 40, 80, and 160 minutes from the original mixing of the test compounds with the water or plasma in the dilution plate. After the quenching of the 160-minute time point, the quench plate was then centrifuged at 4° C. at 1000×g for 10 minutes. 100 μL of the supernatant of each well were then transferred to corresponding unique wells in a “read plate” (96-well Costar® plate) that were filled with 100 μL of HyClone™ water. The plate was then sealed and analyzed via UHPLC using a 10-μL sample injection through a Phenomenex® Kinetex column pre-equilibrated with the loading buffer (95:5 water:acetonitrile). The parameters were as follows. Mobile Phase A: water, 0.025% formic acid. Mobile Phase B: acetonitrile, 0.025% formic acid. Flow Rate: 0.5 mL/min. […] Half-life (t1/2) times were computed by using a chi-square analysis to fit the peak areas to an exponential decay model for compound concentration as a function of time.

One may read the EC50 as the concentration that produces a half-maximal response. On to `CC(C)(C)C(=O)n1nc(-c2cccn(CCC(=O)O)c2=O)cc1NCc1ccc(Cl)s1` [Compound 1, 3-[3-(5-{[(5-chlorothiophen-2-yl)methyl]amino}-1-(2,2-dimethylpropanoyl)-1H-pyrazol-3-yl)-2-oxo-1,2-dihydropyridin-1-yl]propanoic acid], for which the EC50 in data set [1] lay in the range of 930 to 1700 nM. Further, the half-life at 20 µM in data set [2] was in the range of 1.13 to 1.83 h.
For `O=C(O)CCn1cccc(-c2cc(NCc3ccc(Cl)s3)[nH]n2)c1=O` [Compound 2, 3-[3-(5-{[(5-chlorothiophen-2-yl)methyl]amino}-1H-pyrazol-3-yl)-2-oxo-1,2-dihydropyridin-1-yl]propanoic acid], in that order: greater than 100000 nM and no less than 5 h.
For `O=C(O)Cn1cccc(-c2cc(NCc3ccc(Cl)s3)[nH]n2)c1=O` [Compound 3, 2-[3-(5-{[(5-chlorothiophen-2-yl)methyl]amino}-1H-pyrazol-3-yl)-2-oxo-1,2-dihydropyridin-1-yl]acetic acid] the same measures were greater than 100000 nM and no less than 5 h.
For `CC(C)(C)C(=O)n1nc(-c2cccn(CC(=O)O)c2=O)cc1NCc1ccc(Cl)s1` [Compound 4, 2-[3-(5-{[(5-chlorothiophen-2-yl)methyl]amino}-1-(2,2-dimethylpropanoyl)-1H-pyrazol-3-yl)-2-oxo-1,2-dihydropyridin-1-yl]acetic acid], in that order: 2800 to 6200 nM and 3 h.
For the compound `CC(C)(C)C(=O)n1nc(-c2cccn(CCCC(=O)O)c2=O)cc1NCc1ccc(Cl)s1` [Compound 5, 4-[3-(5-{[(5-chlorothiophen-2-yl)methyl]amino}-1-(2,2-dimethylpropanoyl)-1H-pyrazol-3-yl)-2-oxo-1,2-dihydropyridin-1-yl]butanoic acid], in data set [1], the half-maximal effective concentration (EC50) worked out at 1400 nM. Moreover, the half-life at 20 µM in data set [2] amounted to 1.13 h.
For `CC(C)(C)C(=O)n1nc(-c2cccn(CCC(N)=O)c2=O)cc1NCc1ccc(Cl)s1` [Compound 8, 3-[3-(5-{[(5-chlorothiophen-2-yl)methyl]amino}-1-(2,2-dimethylpropanoyl)-1H-pyrazol-3-yl)-2-oxo-1,2-dihydropyridin-1-yl]propanamide], in that order: 990 nM and 1.13 h.
For the compound `CC(C)(N)Cn1cccc(-c2cc(NCc3ccc(Cl)s3)n(C(=O)c3ccoc3)n2)c1=O` [Compound 9, 1-(2-amino-2-methylpropyl)-3-(5-{[(5-chlorothiophen-2-yl)methyl]amino}-1-(furan-3-carbonyl)-1H-pyrazol-3-yl)-1,2-dihydropyridin-2-one], the EC50 in data set [1] worked out at 430 nM. Also, the half-life at 20 µM in data set [2] turned out to be 1.13 h.
On to `CCC(C)(C)C(=O)n1nc(-c2cccn(CCC(=O)O)c2=O)cc1NCc1ccc(Cl)s1` [Compound 11, 3-[3-(5-{[(5-chlorothiophen-2-yl)methyl]amino}-1-(2,2-dimethylbutanoyl)-1H-pyrazol-3-yl)-2-oxo-1,2-dihydropyridin-1-yl]propanoic acid], for which, in data set [1], the EC50 was 960 nM. Further, in data set [2], the half-life at 20 µM was no less than 5 h.
For `O=C(O)CCn1cccc(-c2cc(NCc3ccc(Cl)s3)n(C(=O)c3ccoc3)n2)c1=O` [Compound 12, 3-[3-(5-{[(5-chlorothiophen-2-yl)methyl]amino}-1-(furan-3-carbonyl)-1H-pyrazol-3-yl)-2-oxo-1,2-dihydropyridin-1-yl]propanoic acid], in that order: 1400 to 2100 nM and 3 h.
